Results taken from US8513027B2, “Method of identifying an inhibitor of the prostanoid EP4 receptor” (Asterand UK Acquisition Limited, priority 1998, dated 2013).
Each block holds one compound with its values, some of them ahead of it.

Assays:
[1] = system: human cerebral artery rings; test: tone of isolated human cerebral artery rings exposed to prostanoid receptor agonists; type: cell-based; conditions: for effect on smaller diameter cerebral artery rings contracted with phenylephrine, TP receptors blocked: phenylephrine 1 μM, GR32191 1 μM in bathing solution
Procedure: Sections of cerebral artery were removed from different regions of preparations of human cerebral vasculature containing an intact circle of Willis. Intact rings of this cerebral artery, 2-3 mm in length, were set up under isometric conditions in 10 ml organ baths under an initial tension of 1 g. All tissues were maintained at 37° C. and gassed constantly with 95% O2/5% CO2. Following a 90 min equilibration period all tissues were challenged with phenylephrine (1 μM), to determine tissue viability. Once a stable contraction had been obtained, tissues were exposed to a range of prostanoid receptor agonists, in the absence or presence of receptor antagonists, to determine the functional role of prostanoid receptors in maintaining arterial tone.

pulmonary artery = test: effect on pre-contracted pulmonary artery rings; type: cell-based, human; conditions: tone induced with U-46619 10-100 nM; n=3 donors
Procedure: (§1) Rings (2-4 mm internal diameter) were prepared from sections of pulmonary or coronary artery (n=3 each). They were mounted in organ baths under isometric conditions, in gassed Krebs solution (containing indomethacin) at 37° C., and 1-1.5 g initial tone.

coronary artery = test: effect on pre-contracted coronary artery rings; type: cell-based, human; conditions: n=3 donors; for relaxation of coronary artery: tone induced with phenylephrine 1-10 μM or endothelin-1
Procedure: as §1

EP4 receptors = target: T1, EP4 receptors (Sus scrofa, UniProt I3LLK4); conditions: blockade of EP4 receptors; cited from earlier work
T1 construct: providing a natural source of the receptors, such as piglet saphenous vein; from tissue; host or cells: piglet saphenous vein rings

EP1 = conditions: cited from earlier work
EP2 = EP2 (Homo sapiens, UniProt P43116); conditions: cited from earlier work
EP3 = target: T2, EP3 (Homo sapiens, UniProt P43115); conditions: cited from earlier work
T2 sequence (P43115 1-390): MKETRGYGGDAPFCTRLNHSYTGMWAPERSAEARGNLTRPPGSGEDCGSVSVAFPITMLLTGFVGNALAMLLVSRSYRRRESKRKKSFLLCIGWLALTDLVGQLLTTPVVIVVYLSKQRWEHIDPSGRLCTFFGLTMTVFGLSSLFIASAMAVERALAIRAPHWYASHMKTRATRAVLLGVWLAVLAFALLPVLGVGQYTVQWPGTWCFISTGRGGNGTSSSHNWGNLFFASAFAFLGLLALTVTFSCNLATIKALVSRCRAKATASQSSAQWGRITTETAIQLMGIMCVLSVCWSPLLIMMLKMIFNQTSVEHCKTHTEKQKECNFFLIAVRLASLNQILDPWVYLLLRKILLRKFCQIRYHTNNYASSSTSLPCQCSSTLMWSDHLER

EP4 receptor = target: T3, EP4 receptor (Homo sapiens, UniProt P35408); test: antagonism of PGE2-mediated relaxation of phenylephrine pre-contracted middle cerebral artery rings; type: cell-based; conditions: 10 mM AH23848, 45 mins; P=0.004
T3 construct: Intact rings of this cerebral artery, 2-3 mm in length, were set up under isometric conditions; from tissue; host or cells: human middle cerebral artery rings (one donor)
Procedure: Sections of cerebral artery were removed from different regions of preparations of human cerebral vasculature containing an intact circle of Willis. […] Once a stable contraction had been obtained, tissues were exposed to a range of prostanoid receptor agonists, in the absence or presence of receptor antagonists, to determine the functional role of prostanoid receptors in maintaining arterial tone.
To test the effect of the EP4 receptor antagonist AH23848, cerebral rings were preincubated for 45 mins with 10 mM AH23848.

T1 sequence (I3LLK4 1-489): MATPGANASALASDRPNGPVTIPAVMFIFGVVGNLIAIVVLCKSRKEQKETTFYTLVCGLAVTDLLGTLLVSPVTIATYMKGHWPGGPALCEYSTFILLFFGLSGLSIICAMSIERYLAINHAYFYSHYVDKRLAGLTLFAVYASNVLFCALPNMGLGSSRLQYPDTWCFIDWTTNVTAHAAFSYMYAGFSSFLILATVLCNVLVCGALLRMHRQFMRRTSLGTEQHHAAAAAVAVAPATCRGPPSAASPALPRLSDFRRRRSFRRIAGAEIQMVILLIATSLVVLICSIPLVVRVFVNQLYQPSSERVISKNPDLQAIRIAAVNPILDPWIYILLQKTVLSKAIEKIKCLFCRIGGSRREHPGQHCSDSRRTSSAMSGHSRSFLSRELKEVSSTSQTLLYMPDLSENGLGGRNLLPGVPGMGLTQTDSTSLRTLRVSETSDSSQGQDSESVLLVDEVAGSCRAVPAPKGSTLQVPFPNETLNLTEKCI
EP2, sequence (P43116 whole entry): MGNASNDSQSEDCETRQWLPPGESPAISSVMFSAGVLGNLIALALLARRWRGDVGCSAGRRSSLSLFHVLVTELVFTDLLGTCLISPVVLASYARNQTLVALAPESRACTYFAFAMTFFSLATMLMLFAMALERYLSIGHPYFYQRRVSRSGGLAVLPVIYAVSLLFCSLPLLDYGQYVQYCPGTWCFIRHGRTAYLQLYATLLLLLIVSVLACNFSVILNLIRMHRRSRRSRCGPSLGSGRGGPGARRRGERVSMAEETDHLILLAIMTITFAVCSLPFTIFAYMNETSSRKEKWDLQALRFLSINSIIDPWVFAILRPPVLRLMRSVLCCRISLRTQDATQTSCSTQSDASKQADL
T3 sequence (P35408 whole entry): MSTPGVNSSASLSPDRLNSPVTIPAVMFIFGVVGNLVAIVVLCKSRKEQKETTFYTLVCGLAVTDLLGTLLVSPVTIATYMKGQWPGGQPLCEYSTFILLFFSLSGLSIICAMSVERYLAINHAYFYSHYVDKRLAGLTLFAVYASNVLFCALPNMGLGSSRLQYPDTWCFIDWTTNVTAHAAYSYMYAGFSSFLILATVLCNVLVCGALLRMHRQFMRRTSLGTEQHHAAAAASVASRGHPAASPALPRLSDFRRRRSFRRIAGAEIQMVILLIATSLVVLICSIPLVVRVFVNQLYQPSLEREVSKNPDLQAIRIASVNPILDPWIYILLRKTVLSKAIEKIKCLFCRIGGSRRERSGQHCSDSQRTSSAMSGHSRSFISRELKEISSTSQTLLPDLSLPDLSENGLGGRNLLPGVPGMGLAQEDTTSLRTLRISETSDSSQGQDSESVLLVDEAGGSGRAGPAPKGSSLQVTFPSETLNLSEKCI

SMILES: CCC#CC[C@H](C)[C@H](O)C#C[C@@H]1[C@H]2C/C(=C/COCC(=O)O)C[C@H]2C[C@H]1O [cicaprost]
effect on smaller diameter cerebral artery rings contracted with phenylephrine, TP receptors blocked [1]: induced relaxation
relaxation of pulmonary artery (pulmonary artery): induced a relaxation
relaxation of coronary artery (coronary artery): induced a relaxation

SMILES: CC#CCC(C)[C@H](O)/C=C/[C@@H]1[C@H]2C/C(=C/CCCC(=O)O)C[C@H]2C[C@H]1O (stereo partly shown) [Iloprost]
effect on smaller diameter cerebral artery rings contracted with phenylephrine, TP receptors blocked [1]: induced relaxation

SMILES: CCCCC[C@H](O)/C=C/[C@@H]1[C@@H](C/C=C\CCCC(=O)O)[C@@H](O)C[C@H]1O [PGF2α]
effect on smaller diameter cerebral artery rings contracted with phenylephrine, TP receptors blocked [1]: without effect

SMILES: O=C(O)CCC/C=C\C[C@@H]1C(N2CCOCC2)C(=O)C[C@@H]1OCc1ccc(-c2ccccc2)cc1 (stereo partly shown) [AH22921]
pA2 against PGE2-induced relaxation of piglet saphenous vein (EP4 receptors): 5.3
effect on EP1 receptor subtype (EP1): no effect
effect on EP2 receptor subtype (EP2): no effect
effect on EP3 receptor subtype (EP3): no effect

SMILES: CCCC1([C@H](O)C/C=C/[C@H]2[C@H](O)CC(=O)[C@@H]2CCCCCCC(=O)OC)CCC1 [Butaprost]
effect on smaller diameter cerebral artery rings contracted with phenylephrine, TP receptors blocked [1]: neither compound caused relaxation

Now from value to compound, other results behind:

effect on smaller diameter cerebral artery rings contracted with phenylephrine, TP receptors blocked [1]: without effect
SMILES: CCCCC[C@H](O)/C=C/[C@H]1C(=O)C[C@H](O)[C@@H]1C/C=C\CCCC(=O)O [PGD2]

effect on smaller diameter cerebral artery rings contracted with phenylephrine, TP receptors blocked [1]: neither compound caused relaxation
SMILES: CCCCCC(O)c1ccc([C@@H]2CCC(=O)[C@H]2CCCCCCC(=O)O)cc1 (relative stereo) [AH13205, trans-2-(4-[1-hydroxyhexyl]phenyl)-5-oxocyclopentaneheptanoate]

relaxation of cerebral artery rings pre-contracted with U46619 or 5-HT ([1]; U46619 100 nM or 5-HT 300 nM and 1 μM, FIG. 2): maximal or near maximal relaxation
effect of removal of the endothelium on the relaxant response ([1]; human cerebral arteries): did not affect
effect on smaller pre-contracted cerebral vessels ([1]; internal diameter <1 mm, pre-contracted with phenylephrine): potent concentration-related relaxation
effect on larger cerebral vessels ([1]; internal diameter >1 mm): concentration-related contraction
concentration at which maximum relaxation occurs ([1]; vessel pre-contracted with phenylephrine, FIG. 1): below 10^−6 M
SMILES: CCCCC[C@H](O)/C=C/[C@H]1[C@H](O)CC(=O)[C@@H]1C/C=C\CCCC(=O)O [PGE2, prostaglandin E2]
relaxation of pulmonary artery (pulmonary artery): did not cause relaxation
contraction of coronary artery (coronary artery; pre-contracted preparations): small contraction
relaxation of coronary artery (coronary artery): did not cause relaxation

shift of PGE2-mediated relaxation curve (EP4 receptor): significant rightward shift
SMILES: O=C(O)CC/C=C\CC[C@@H]1C(N2CCOCC2)C(=O)C[C@@H]1OCc1ccc(-c2ccccc2)cc1 (stereo partly shown) [AH23848]
pA2 against PGE2-induced relaxation of piglet saphenous vein (EP4 receptors): 5.4
effect on EP1 receptor subtype (EP1): no effect
effect on EP2 receptor subtype (EP2): no effect
effect on EP3 receptor subtype (EP3): no effect
